Source: ChEMBL document CHEMBL1201862, “PubChem BioAssay data set” (2004)
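Where inhibition never reached the appropriate level, the endpoint shown equals the highest concentration tested. Otherwise, values were interpolated linearly from a five-concentration, 48-hour dose response in 96-well plates. GI50 = concentration required for 50% inhibition of growth.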 Active and inactive are the calls of the source. Rule as the data show it: active = GI50 up to about 1.1 µM and inactive = higher.

Assays:
Assay in all cases: NCI-60 cell line screen, 48 h
HCT-116 = tested on: HCT-116
SN12C = tested on: SN12C
SF-295 = tested on: SF-295
MCF7 = tested on: MCF7
BT-549 = tested on: BT-549
HL-60 = tested on: HL-60
PC-3 = tested on: PC-3
UACC-62 = tested on: UACC-62
SK-MEL-5 = tested on: SK-MEL-5
HOP-62 = tested on: HOP-62
KM12 = tested on: KM12
DU-145 = tested on: DU-145
MDA-N = tested on: MDA-N
LOX IMVI = tested on: LOX IMVI
SNB-75 = tested on: SNB-75
UO-31 = tested on: UO-31
SK-MEL-28 = tested on: SK-MEL-28
HOP-92 = tested on: HOP-92
A498 = tested on: A498
SK-MEL-2 = tested on: SK-MEL-2

Measured: GI50

CC1C(c2ccccc2)NC(c2ccccc2)CC1(N)C#N (stereo not given)
inactive: HCT-116 > 100 µM | SN12C > 100 µM | SF-295 > 100 µM | MCF7 > 100 µM | BT-549 > 100 µM | HL-60 > 100 µM | PC-3 > 100 µM | UACC-62 90.6 µM | SK-MEL-5 > 100 µM | HOP-62 > 100 µM | KM12 > 100 µM | DU-145 > 100 µM | MDA-N > 100 µM | LOX IMVI > 100 µM | SNB-75 > 100 µM | UO-31 > 100 µM | SK-MEL-28 > 100 µM | HOP-92 95.1 µM

CN(C)CCCNc1ccnc2cc([N+](=O)[O-])ccc12
inactive: HCT-116 6.31 µM | SN12C 17.2 µM | SF-295 20.4 µM | MCF7 4.47 µM | BT-549 19.1 µM | PC-3 14.1 µM | UACC-62 18.8 µM | SK-MEL-5 11.9 µM | HOP-62 16 µM | KM12 10.2 µM | DU-145 27.8 µM | MDA-N 12.1 µM | LOX IMVI 11.4 µM | SNB-75 23.3 µM | A498 17.2 µM | UO-31 16.9 µM | SK-MEL-2 14.5 µM | SK-MEL-28 36.2 µM | HOP-92 3.38 µM

COc1ccc(NC2=NCCO2)c2c1CCCC2
inactive: HCT-116 28.8 µM | SF-295 27.3 µM | MCF7 27.4 µM | BT-549 30.2 µM | HL-60 15.5 µM | PC-3 26.7 µM | UACC-62 24.4 µM | SK-MEL-5 17.5 µM | KM12 42.6 µM | DU-145 51.2 µM | MDA-N 35.6 µM | LOX IMVI 29.1 µM | SNB-75 27.3 µM | A498 61.1 µM | UO-31 53.5 µM | SK-MEL-2 18.8 µM | SK-MEL-28 30.9 µM | HOP-92 19.8 µM

COc1ccc(-c2[nH]c(-c3ccc(OC)cc3)c(-c3ccccn3)c2-c2ccccn2)cc1
inactive: HCT-116 > 100 µM | SN12C 52.2 µM | SF-295 38.2 µM | MCF7 42.7 µM | BT-549 36.2 µM | HL-60 32.4 µM | PC-3 44 µM | UACC-62 34.3 µM | SK-MEL-5 18.3 µM | KM12 38.2 µM | DU-145 > 100 µM | MDA-N > 100 µM | LOX IMVI 24 µM | SNB-75 31.2 µM | A498 82 µM | UO-31 33.7 µM | HOP-92 > 100 µM

NC1=CN(Cc2ccccc2)C2=N/C(=C\c3ccccc3O)C(=O)N12
inactive: HCT-116 > 100 µM | SN12C > 100 µM | SF-295 > 100 µM | MCF7 > 100 µM | BT-549 > 100 µM | HL-60 > 100 µM | PC-3 > 100 µM | UACC-62 > 100 µM | SK-MEL-5 90.8 µM | HOP-62 > 100 µM | KM12 > 100 µM | DU-145 > 100 µM | MDA-N > 100 µM | LOX IMVI > 100 µM | SNB-75 > 100 µM | A498 > 100 µM | UO-31 70.3 µM | SK-MEL-2 > 100 µM | SK-MEL-28 > 100 µM | HOP-92 > 100 µM

Cc1cccc(C)c1Nc1nc(C)c(C(=O)CC(=O)C(=O)Nc2c(C(C)C)cccc2C(C)C)s1
inactive: HCT-116 > 100 µM | SN12C > 100 µM | SF-295 58.5 µM | MCF7 > 100 µM | BT-549 > 100 µM | HL-60 24.7 µM | PC-3 78.3 µM | UACC-62 > 100 µM | SK-MEL-5 > 100 µM | HOP-62 > 100 µM | KM12 > 100 µM | DU-145 > 100 µM | MDA-N > 100 µM | LOX IMVI > 100 µM | UO-31 39.4 µM | SK-MEL-2 > 100 µM | SK-MEL-28 > 100 µM | HOP-92 43.4 µM

CC(C)=CCC/C(=C\CC/C(=C\CCc1ccoc1)C(=O)O)C(=O)O
inactive: HCT-116 > 100 µM | SN12C > 100 µM | SF-295 > 100 µM | MCF7 > 100 µM | BT-549 > 100 µM | HL-60 11.7 µM | PC-3 > 100 µM | UACC-62 > 100 µM | SK-MEL-5 > 100 µM | HOP-62 > 100 µM | KM12 > 100 µM | DU-145 > 100 µM | MDA-N > 100 µM | LOX IMVI > 100 µM | SNB-75 > 100 µM | A498 > 100 µM | UO-31 > 100 µM | SK-MEL-2 > 100 µM | SK-MEL-28 > 100 µM | HOP-92 > 100 µM
